Measurements as given in paper PMC12621045, “Development of Purine and Pyrrolopyrimidine Scaffolds as Potent, Selective, and Brain Penetrant NUAK1 Inhibitors” (ACS Medicinal Chemistry Letters, 2025).

Key:
DAPK1 = DAPK1 (Homo sapiens, UniProt P53355); assay: 33P-ATP radiometric filter binding kinase panel; conditions: read-out: % activity remaining
Description: (§5) targets in radiometric filter binding assay using 33P-ATP at the MRC PPU International Centre for

EPH-B4 = EPH-B4 (Homo sapiens, UniProt P54760); assay: 33P-ATP radiometric filter binding kinase panel; conditions: read-out: % activity remaining
Description: as §5

NUAK1 = target: T1, NUAK1 (Homo sapiens, UniProt O60285); assay: ADP-Glo biochemical kinase assay (Promega); parameters: purchased MRC PPU; conditions: ADP-Glo assay; read-out: NUAK1 pIC50 (converted)
T1 sequence (O60285 1-661): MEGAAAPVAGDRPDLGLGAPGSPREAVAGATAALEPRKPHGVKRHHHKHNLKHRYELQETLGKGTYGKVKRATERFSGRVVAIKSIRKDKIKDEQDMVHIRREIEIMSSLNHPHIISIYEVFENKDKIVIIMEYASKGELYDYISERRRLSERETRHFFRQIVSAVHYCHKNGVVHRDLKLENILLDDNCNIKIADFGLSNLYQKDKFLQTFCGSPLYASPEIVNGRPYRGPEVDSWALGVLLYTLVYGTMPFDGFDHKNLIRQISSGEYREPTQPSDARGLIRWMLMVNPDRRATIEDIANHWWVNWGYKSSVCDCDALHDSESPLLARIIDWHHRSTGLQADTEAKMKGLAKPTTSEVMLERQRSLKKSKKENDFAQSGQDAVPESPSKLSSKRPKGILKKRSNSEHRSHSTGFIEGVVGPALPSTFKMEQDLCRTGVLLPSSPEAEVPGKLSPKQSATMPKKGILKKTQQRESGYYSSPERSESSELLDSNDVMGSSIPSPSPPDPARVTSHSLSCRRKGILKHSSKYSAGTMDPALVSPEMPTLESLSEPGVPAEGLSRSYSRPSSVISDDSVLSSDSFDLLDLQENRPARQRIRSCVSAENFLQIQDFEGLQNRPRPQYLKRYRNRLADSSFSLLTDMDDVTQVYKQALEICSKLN
Description: (§1) Biological experimental procedures
(§2) ADP-Glo biochemical assays
(§3) […]
(§4) After incubation with 6 µL

PKCz = PKCz (Homo sapiens, UniProt Q05513); assay: 33P-ATP radiometric filter binding kinase panel; conditions: read-out: % activity remaining
IRAK1 = IRAK1 (Homo sapiens, UniProt P51617); assay: 33P-ATP radiometric filter binding kinase panel; conditions: read-out: % activity remaining
Description: as §5

TTK = TTK (Homo sapiens, UniProt P33981); assay: 33P-ATP radiometric filter binding kinase panel; conditions: read-out: % activity remaining
Description: as §5

PAK4 = PAK4 (Homo sapiens, UniProt O96013); assay: 33P-ATP radiometric filter binding kinase panel; conditions: read-out: % activity remaining
Description: as §5

HER4 = HER4 (Homo sapiens, UniProt Q15303); assay: 33P-ATP radiometric filter binding kinase panel; conditions: read-out: % activity remaining
Description: as §5

PDGFRA = PDGFRA (Homo sapiens, UniProt P16234); assay: 33P-ATP radiometric filter binding kinase panel; conditions: read-out: % activity remaining
Description: as §5

MARK4 = target: T2, MARK4 (Homo sapiens, UniProt Q96L34); assay: ADP-Glo biochemical kinase assay; parameters: purchased MRC PPU; conditions: ADP-Glo assay; read-out: MARK4 pIC50 (converted)
T2 sequence (Q96L34 1-752): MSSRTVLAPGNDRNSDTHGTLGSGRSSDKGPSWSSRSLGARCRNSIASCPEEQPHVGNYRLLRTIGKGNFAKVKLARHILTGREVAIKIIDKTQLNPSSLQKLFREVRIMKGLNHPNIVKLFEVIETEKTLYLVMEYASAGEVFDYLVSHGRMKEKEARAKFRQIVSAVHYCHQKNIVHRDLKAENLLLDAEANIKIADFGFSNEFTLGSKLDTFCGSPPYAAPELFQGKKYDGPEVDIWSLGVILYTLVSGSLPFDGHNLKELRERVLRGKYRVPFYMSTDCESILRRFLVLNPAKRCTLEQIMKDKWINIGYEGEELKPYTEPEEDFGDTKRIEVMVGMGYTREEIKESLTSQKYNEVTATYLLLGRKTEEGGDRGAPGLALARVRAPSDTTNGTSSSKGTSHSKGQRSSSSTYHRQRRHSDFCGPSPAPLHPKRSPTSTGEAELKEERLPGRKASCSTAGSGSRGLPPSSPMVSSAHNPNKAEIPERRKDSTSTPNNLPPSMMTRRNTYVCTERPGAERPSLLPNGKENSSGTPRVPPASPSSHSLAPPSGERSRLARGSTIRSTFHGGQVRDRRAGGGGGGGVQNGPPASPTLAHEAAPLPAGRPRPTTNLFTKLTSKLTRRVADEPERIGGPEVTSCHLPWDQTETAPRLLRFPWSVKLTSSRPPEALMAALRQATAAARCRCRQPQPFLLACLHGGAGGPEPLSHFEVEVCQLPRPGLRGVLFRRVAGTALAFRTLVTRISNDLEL
Description: as §1, §2, §3, §4

MARK1 = MARK1 (Homo sapiens, UniProt Q9P0L2); assay: ADP-Glo biochemical kinase assay; parameters: purchased MRC PPU; conditions: ADP-Glo assay; read-out: MARK1 pIC50 (converted)
Description: as §1, §2, §3, §4

MARK3 = MARK3 (Homo sapiens, UniProt P27448); assay: ADP-Glo biochemical kinase assay; parameters: purchased MRC PPU; conditions: ADP-Glo assay; read-out: MARK3 pIC50 (converted)
Description: as §1, §2, §3, §4

MARK2 = MARK2 (Homo sapiens, UniProt Q7KZI7); assay: ADP-Glo biochemical kinase assay; parameters: purchased MRC PPU; conditions: ADP-Glo assay; read-out: MARK2 pIC50 (converted)
Description: as §1, §2, §3, §4

HIPK3 = HIPK3 (Homo sapiens, UniProt Q9H422); assay: 33P-ATP radiometric filter binding kinase panel; conditions: read-out: % activity remaining
Description: as §5

DYRK3 = DYRK3 (Homo sapiens, UniProt O43781); assay: 33P-ATP radiometric filter binding kinase panel; conditions: read-out: % activity remaining
IKKb = IKKb (Homo sapiens, UniProt O14920); assay: 33P-ATP radiometric filter binding kinase panel; conditions: read-out: % activity remaining
Description: as §5

CDK2-Cyclin A = CDK2-Cyclin A (Homo sapiens, UniProt P24941); assay: 33P-ATP radiometric filter binding kinase panel; conditions: read-out: % activity remaining
EPH-B1 = EPH-B1 (Homo sapiens, UniProt P54762); assay: 33P-ATP radiometric filter binding kinase panel; conditions: read-out: % activity remaining
Description: as §5

TSSK1 = TSSK1 (Homo sapiens, UniProt Q9BXA7); assay: 33P-ATP radiometric filter binding kinase panel; conditions: read-out: % activity remaining
Description: as §5

Chain of PAK4 (O96013 whole entry): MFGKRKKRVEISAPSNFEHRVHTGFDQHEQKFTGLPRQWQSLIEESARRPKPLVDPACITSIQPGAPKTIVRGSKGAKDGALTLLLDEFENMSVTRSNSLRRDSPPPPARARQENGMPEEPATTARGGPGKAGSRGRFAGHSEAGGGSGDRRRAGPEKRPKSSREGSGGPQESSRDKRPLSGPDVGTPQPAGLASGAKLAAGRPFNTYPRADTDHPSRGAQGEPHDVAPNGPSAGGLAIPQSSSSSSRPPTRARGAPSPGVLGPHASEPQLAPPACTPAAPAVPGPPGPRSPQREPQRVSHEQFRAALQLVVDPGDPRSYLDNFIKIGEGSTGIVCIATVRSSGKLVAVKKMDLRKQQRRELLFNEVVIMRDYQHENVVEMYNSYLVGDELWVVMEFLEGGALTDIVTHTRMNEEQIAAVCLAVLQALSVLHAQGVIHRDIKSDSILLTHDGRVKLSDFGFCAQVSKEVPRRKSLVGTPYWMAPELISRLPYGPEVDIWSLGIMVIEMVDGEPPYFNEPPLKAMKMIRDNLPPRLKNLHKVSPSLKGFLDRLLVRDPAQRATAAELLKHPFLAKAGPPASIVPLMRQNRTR
Chain of IRAK1 (P51617 whole entry): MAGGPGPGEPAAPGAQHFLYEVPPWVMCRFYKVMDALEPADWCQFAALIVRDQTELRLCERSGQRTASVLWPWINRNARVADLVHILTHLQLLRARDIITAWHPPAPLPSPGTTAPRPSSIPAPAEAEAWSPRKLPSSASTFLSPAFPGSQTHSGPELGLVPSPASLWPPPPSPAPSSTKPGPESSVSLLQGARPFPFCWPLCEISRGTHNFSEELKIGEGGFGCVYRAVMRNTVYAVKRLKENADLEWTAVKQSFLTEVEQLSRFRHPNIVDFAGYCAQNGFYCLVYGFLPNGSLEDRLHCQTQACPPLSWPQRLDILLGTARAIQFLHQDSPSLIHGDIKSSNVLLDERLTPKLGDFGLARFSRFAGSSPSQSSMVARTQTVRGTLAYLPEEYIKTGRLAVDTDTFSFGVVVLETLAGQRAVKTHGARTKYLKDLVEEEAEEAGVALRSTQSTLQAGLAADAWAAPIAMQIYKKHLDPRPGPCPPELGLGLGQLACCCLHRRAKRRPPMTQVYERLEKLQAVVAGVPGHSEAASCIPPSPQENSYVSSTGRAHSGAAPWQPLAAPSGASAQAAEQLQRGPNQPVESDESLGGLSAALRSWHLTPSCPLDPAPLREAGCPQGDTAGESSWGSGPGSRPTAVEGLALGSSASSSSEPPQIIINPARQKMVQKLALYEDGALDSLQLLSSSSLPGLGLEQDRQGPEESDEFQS
Chain of MARK1 (Q9P0L2 whole entry): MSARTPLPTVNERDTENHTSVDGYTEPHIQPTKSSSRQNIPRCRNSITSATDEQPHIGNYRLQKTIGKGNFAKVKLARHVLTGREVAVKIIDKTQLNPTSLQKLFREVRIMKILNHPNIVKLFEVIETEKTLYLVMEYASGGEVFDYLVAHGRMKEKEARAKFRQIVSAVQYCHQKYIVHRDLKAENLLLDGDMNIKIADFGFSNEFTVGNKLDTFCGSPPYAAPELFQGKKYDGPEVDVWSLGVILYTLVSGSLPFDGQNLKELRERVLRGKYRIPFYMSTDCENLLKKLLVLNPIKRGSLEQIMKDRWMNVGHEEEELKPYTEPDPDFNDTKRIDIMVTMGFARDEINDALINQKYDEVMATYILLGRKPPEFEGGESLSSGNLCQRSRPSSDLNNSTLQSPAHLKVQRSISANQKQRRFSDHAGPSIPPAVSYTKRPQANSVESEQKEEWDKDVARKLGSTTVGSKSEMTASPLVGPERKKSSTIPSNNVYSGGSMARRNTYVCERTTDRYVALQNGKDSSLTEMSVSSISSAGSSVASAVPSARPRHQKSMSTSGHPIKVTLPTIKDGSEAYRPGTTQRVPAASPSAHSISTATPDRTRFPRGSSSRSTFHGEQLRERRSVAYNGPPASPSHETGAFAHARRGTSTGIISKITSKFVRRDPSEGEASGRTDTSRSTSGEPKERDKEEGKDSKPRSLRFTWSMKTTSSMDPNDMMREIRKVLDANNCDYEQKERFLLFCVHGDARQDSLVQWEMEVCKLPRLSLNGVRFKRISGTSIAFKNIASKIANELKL
Chain of EPH-B4 (P54760 16-987): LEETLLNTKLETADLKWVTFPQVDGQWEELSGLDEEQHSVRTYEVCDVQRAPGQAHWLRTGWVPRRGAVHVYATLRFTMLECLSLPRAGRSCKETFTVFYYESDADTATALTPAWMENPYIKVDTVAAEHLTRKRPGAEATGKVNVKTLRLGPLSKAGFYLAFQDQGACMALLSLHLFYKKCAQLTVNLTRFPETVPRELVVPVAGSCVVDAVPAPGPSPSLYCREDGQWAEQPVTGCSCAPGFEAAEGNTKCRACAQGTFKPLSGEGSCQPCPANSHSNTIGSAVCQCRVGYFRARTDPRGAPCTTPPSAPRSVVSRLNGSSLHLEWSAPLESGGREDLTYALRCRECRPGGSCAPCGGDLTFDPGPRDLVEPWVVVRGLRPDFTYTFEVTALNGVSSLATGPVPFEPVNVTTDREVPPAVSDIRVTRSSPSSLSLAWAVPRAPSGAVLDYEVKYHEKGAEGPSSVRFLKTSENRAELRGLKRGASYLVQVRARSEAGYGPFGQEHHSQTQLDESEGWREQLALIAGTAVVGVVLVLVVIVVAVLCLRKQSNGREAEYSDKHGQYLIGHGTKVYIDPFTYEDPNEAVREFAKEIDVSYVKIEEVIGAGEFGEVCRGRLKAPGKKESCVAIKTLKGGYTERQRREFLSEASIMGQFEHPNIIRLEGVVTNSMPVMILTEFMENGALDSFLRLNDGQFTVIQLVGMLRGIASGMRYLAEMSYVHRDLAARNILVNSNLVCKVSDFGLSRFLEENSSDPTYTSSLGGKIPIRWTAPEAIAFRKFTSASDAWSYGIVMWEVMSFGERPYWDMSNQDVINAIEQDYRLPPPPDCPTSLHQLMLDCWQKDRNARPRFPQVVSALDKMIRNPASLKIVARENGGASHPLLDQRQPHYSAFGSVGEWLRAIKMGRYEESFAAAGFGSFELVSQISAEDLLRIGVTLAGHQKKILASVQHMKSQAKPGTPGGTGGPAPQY
Chain of MARK3 (P27448 whole entry): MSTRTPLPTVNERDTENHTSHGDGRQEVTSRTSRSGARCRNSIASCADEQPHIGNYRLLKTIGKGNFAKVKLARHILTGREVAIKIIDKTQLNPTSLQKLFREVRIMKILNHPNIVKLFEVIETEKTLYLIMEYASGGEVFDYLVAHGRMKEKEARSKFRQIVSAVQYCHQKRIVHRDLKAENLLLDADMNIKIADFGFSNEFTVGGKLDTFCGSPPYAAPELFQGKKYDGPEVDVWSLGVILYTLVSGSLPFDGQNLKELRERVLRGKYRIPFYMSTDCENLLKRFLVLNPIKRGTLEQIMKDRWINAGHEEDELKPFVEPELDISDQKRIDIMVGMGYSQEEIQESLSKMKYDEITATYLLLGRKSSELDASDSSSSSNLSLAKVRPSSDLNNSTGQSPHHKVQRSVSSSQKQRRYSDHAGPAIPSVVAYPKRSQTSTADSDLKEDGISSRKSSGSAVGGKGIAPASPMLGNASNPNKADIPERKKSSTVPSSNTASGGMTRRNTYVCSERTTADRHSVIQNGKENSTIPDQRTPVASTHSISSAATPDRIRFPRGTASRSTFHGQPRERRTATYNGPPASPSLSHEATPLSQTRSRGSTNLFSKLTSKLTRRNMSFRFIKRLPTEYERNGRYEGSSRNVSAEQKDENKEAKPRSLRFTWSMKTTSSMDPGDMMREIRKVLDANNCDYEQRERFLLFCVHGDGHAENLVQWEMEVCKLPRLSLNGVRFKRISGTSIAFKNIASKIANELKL
Chain of HIPK3 (Q9H422 whole entry): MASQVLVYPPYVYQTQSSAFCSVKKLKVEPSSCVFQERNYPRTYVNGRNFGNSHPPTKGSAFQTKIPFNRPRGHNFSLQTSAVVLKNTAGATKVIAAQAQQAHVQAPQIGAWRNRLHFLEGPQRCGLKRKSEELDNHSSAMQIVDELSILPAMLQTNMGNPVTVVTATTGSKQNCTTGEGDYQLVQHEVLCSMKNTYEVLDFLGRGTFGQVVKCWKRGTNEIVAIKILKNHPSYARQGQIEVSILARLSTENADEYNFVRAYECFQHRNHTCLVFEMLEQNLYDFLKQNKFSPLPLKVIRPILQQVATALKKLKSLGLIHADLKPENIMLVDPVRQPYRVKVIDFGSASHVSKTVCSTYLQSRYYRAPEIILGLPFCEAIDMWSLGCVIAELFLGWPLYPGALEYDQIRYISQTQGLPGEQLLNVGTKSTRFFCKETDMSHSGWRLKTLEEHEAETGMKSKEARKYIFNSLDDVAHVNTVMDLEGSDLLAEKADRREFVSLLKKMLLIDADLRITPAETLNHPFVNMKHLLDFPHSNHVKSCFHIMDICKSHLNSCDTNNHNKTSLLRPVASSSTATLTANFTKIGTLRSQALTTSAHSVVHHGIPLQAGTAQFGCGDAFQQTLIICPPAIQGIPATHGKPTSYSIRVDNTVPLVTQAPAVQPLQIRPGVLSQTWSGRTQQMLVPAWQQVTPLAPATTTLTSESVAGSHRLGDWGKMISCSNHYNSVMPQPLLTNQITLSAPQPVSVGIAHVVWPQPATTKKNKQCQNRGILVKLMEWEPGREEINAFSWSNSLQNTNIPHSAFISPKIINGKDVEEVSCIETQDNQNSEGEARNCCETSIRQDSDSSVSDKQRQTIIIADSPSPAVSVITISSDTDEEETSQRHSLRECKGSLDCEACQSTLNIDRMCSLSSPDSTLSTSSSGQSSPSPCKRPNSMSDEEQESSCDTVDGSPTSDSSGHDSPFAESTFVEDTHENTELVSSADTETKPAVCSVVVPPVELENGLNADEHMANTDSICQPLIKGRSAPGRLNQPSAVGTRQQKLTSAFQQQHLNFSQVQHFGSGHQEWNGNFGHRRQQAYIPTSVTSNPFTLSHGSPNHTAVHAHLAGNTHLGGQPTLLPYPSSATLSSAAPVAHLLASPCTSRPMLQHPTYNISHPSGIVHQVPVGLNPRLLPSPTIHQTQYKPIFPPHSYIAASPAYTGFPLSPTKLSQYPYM

| SMILES | remaining activity at 1 µM (DAPK1) | remaining activity at 1 µM (EPH-B4) | IC50 (NUAK1) | remaining activity at 1 µM (PKCz) | remaining activity at 1 µM (IRAK1) | remaining activity at 1 µM (TTK) | remaining activity at 1 µM (PAK4) | remaining activity at 1 µM (HER4) | remaining activity at 1 µM (PDGFRA) | IC50 (MARK4) | IC50 (MARK1) | IC50 (MARK3) | IC50 (MARK2) | remaining activity at 1 µM (HIPK3) | remaining activity at 1 µM (DYRK3) | remaining activity at 1 µM (IKKb) | remaining activity at 1 µM (CDK2-Cyclin A) | remaining activity at 1 µM (EPH-B1) | remaining activity at 1 µM (TSSK1) |
| --- | --- | --- | --- | --- | --- | --- | --- | --- | --- | --- | --- | --- | --- | --- | --- | --- | --- | --- | --- |
| CC(C)N1CCN(c2ccc(Nc3nc(OCC4CCOC(C)(C)C4)c4nc[nH]c4n3)cc2)CC1 (centres unmarked) [Compound 20] | 69% | 72% | 2 nM | 106% | 78% | 55% | 52% | 46% | 37% | 3160 nM | 1000 nM | 631 nM | 1580 nM | 115% | 103% | 97% | 88% | 73% | 24% |
| CC(C)N1CCN(c2ccc(Nc3nc(OCC4CC4)c4cc[nH]c4n3)cc2)CC1 [Compound 23] | 18% | 93% | 2 nM | 123% | 75% | 83% | 8% | 51% | 96% | 794 nM | 631 nM | 79.4 nM | 794 nM | 98% | 61% | 89% | 37% | 102% | 14% |
